According to ChEMBL document CHEMBL1155271, “Synthesis, crystal structures and antibacterial activity studies of aza-derivatives of phytoalexin from cotton plant--gossypol” (2009):
Values after ≈ are worked out from the molar mass of the structure shown. Active and inactive are the calls of the source. No cut-off for these calls is given here.

Columns and labels:
Assay type in all cases: functional
Micrococcus luteus [1] = experiment: Antimicrobial activity against Micrococcus luteus ATCC 10240 at 400 ug after 18 hrs by disk diffusion method; details: ATCC 10240, 18 h, read-out: DIZ
Staphylococcus aureus [2] = experiment: Antimicrobial activity against Methicillin susceptible Staphylococcus aureus 213/7 by twofold dilution technique
Staphylococcus aureus [3] = experiment: Antimicrobial activity against Staphylococcus aureus ATCC 6538 after 18 hrs by twofold dilution technique; details: ATCC 6538, 18 h
Staphylococcus aureus [4] = experiment: Antimicrobial activity against Staphylococcus aureus NCTC 4163 after 18 hrs by twofold dilution technique; details: NCTC 4163, 18 h
Staphylococcus aureus [5] = experiment: Antimicrobial activity against Staphylococcus aureus ATCC 25923 after 18 hrs by twofold dilution technique; details: ATCC 25923, 18 h
Bacillus subtilis [6] = experiment: Antimicrobial activity against Bacillus subtilis ATCC 6633 at 400 ug after 18 hrs by disk diffusion method; details: ATCC 6633, 18 h, read-out: DIZ
Staphylococcus aureus [7] = experiment: Antimicrobial activity against Methicillin susceptible Staphylococcus aureus 212/7 by twofold dilution technique
Enterococcus hirae [8] = experiment: Antimicrobial activity against Enterococcus hirae ATCC 10541 at 400 ug after 18 hrs by disk diffusion method; details: for zone of inhibition at 400 µg/disc: ATCC 10541, 18 h, read-out: DIZ
Staphylococcus aureus [9] = experiment: Antimicrobial activity against methicillin-resistant Staphylococcus aureus 141/6 by twofold dilution technique
Staphylococcus aureus [10] = experiment: Antimicrobial activity against methicillin-resistant Staphylococcus aureus 218/7 by twofold dilution technique
Staphylococcus aureus [11] = experiment: Antimicrobial activity against Staphylococcus aureus ATCC 29213 after 18 hrs by twofold dilution technique; details: ATCC 29213, 18 h
Bacillus subtilis [12] = experiment: Antimicrobial activity against Bacillus subtilis ATCC 6633 after 18 hrs by twofold dilution technique; details: ATCC 6633, 18 h
Bacillus cereus [13] = experiment: Antimicrobial activity against Bacillus cereus ATCC 11778 at 400 ug after 18 hrs by disk diffusion method; details: ATCC 11778, 18 h, read-out: DIZ
Staphylococcus aureus [14] = experiment: Antimicrobial activity against Methicillin susceptible Staphylococcus aureus 243/7 by twofold dilution technique
Staphylococcus aureus [15] = experiment: Antimicrobial activity against Methicillin susceptible Staphylococcus aureus 239/7 by twofold dilution technique
Micrococcus luteus [16] = experiment: Antimicrobial activity against Micrococcus luteus ATCC 10240 by twofold dilution technique
Staphylococcus aureus [17] = experiment: Antimicrobial activity against Staphylococcus aureus ATCC 6538 at 400 ug after 18 hrs by disk diffusion method; details: ATCC 6538, 18 h, read-out: DIZ
[18] = test system: Staphylococcus epidermidis; experiment: Antimicrobial activity against Staphylococcus epidermidis ATCC 12228 at 400 ug after 18 hrs by disk diffusion method; details: ATCC 12228, 18 h, read-out: DIZ
Staphylococcus aureus [19] = experiment: Antimicrobial activity against Staphylococcus aureus NCTC 4163 at 400 ug after 18 hrs by disk diffusion method; details: NCTC 4163, 18 h, read-out: DIZ
Staphylococcus aureus [20] = experiment: Antimicrobial activity against Methicillin susceptible Staphylococcus aureus 206/7 by twofold dilution technique
Staphylococcus aureus [21] = experiment: Antimicrobial activity against methicillin-resistant Staphylococcus aureus 144/6 by twofold dilution technique
Staphylococcus aureus [22] = experiment: Antimicrobial activity against methicillin-resistant Staphylococcus aureus 146/6 by twofold dilution technique
Enterococcus hirae [23] = experiment: Antimicrobial activity against Enterococcus hirae ATCC 10541 after 18 hrs by twofold dilution technique; details: ATCC 10541, 18 h
Staphylococcus aureus [24] = experiment: Antimicrobial activity against Methicillin susceptible Staphylococcus aureus 237/7 by twofold dilution technique
Staphylococcus aureus [25] = experiment: Antimicrobial activity against Methicillin susceptible Staphylococcus aureus 207/7 by twofold dilution technique
Micrococcus luteus [26] = experiment: Antimicrobial activity against Micrococcus luteus ATCC 9341 at 400 ug after 18 hrs by disk diffusion method
Staphylococcus aureus [27] = experiment: Antimicrobial activity against methicillin-resistant Staphylococcus aureus 236/7 by twofold dilution technique
Micrococcus luteus [28] = experiment: Antimicrobial activity against Micrococcus luteus ATCC 9341 after 18 hrs by twofold dilution technique; details: ATCC 9341, 18 h
Staphylococcus aureus [29] = experiment: Antimicrobial activity against methicillin-resistant Staphylococcus aureus 200/7 by twofold dilution technique
Staphylococcus aureus [30] = experiment: Antimicrobial activity against Staphylococcus aureus ATCC 29213 at 400 ug after 18 hrs by disk diffusion method; details: ATCC 29213, 18 h, read-out: DIZ
Staphylococcus aureus [31] = experiment: Antimicrobial activity against Methicillin susceptible Staphylococcus aureus 238/7 by twofold dilution technique
Bacillus cereus [32] = experiment: Antimicrobial activity against Bacillus cereus ATCC 11778 after 18 hrs by twofold dilution technique; details: ATCC 11778, 18 h
Staphylococcus aureus [33] = experiment: Antimicrobial activity against Methicillin susceptible Staphylococcus aureus 208/7 by twofold dilution technique
Staphylococcus aureus [34] = experiment: Antimicrobial activity against methicillin-resistant Staphylococcus aureus 143/6 by twofold dilution technique
[35] = test system: Staphylococcus epidermidis; experiment: Antimicrobial activity against Staphylococcus epidermidis ATCC 12228 by twofold dilution technique
Staphylococcus aureus [36] = experiment: Antimicrobial activity against Methicillin susceptible Staphylococcus aureus 242/7 by twofold dilution technique
Staphylococcus aureus [37] = experiment: Antimicrobial activity against methicillin-resistant Staphylococcus aureus 140/6 by twofold dilution technique
Staphylococcus aureus [38] = experiment: Antimicrobial activity against Staphylococcus aureus ATCC 25923 at 400 ug after 18 hrs by disk diffusion method; details: ATCC 25923, 18 h, read-out: DIZ
Staphylococcus aureus [39] = experiment: Antimicrobial activity against methicillin-resistant Staphylococcus aureus 136/6 by twofold dilution technique
Staphylococcus aureus [40] = experiment: Antimicrobial activity against methicillin-resistant Staphylococcus aureus 217/7 by twofold dilution technique

SMILES | zone of inhibition at 400 µg/disc (Micrococcus luteus [1]) [mm] | MIC (Staphylococcus aureus [2]) [µg/mL] | MIC (Staphylococcus aureus [3]) [µg/mL] | MIC (Staphylococcus aureus [4]) [µg/mL] | MIC (Staphylococcus aureus [5]) [µg/mL] | zone of inhibition at 400 µg/disc (Bacillus subtilis [6]) [mm] | MIC (Staphylococcus aureus [7]) [µg/mL] | MIC (Staphylococcus aureus [9]) [µg/mL] | MIC (Staphylococcus aureus [10]) [µg/mL] | MIC (Staphylococcus aureus [11]) [µg/mL] | MIC (Bacillus subtilis [12]) [µg/mL] | zone of inhibition at 400 µg/disc (Bacillus cereus [13]) [mm] | MIC (Staphylococcus aureus [14]) [µg/mL] | MIC (Staphylococcus aureus [15]) [µg/mL] | MIC (Micrococcus luteus [16]) [µg/mL] | zone of inhibition at 400 µg/disc (Staphylococcus aureus [17]) [mm] | zone of inhibition at 400 µg/disc [18] [mm] | MIC (Staphylococcus aureus [20]) [µg/mL] | MIC (Staphylococcus aureus [21]) [µg/mL] | MIC (Staphylococcus aureus [22]) [µg/mL] | also measured
Cc1cc2c(c(O)c1-c1c(C)cc3c(c1O)/C(=C/NCCc1cccs1)C(=O)C(O)=C3C(C)C)/C(=C/NCCc1cccs1)C(=O)C(O)=C2C(C)C | 19 | 25 (≈ 33.9 µM) | 25 (≈ 33.9 µM) | 50 (≈ 67.8 µM) | 25 (≈ 33.9 µM) | 16 | 25 (≈ 33.9 µM) | 50 (≈ 67.8 µM) | 50 (≈ 67.8 µM) | 25 (≈ 33.9 µM) | 100 (≈ 136 µM) | 15 | 50 (≈ 67.8 µM) | 50 (≈ 67.8 µM) | 50 (≈ 67.8 µM) | 17 | 21 | 25 (≈ 33.9 µM) | 50 (≈ 67.8 µM) | 50 (≈ 67.8 µM) | zone of inhibition at 400 µg/disc (Enterococcus hirae [8]): 14 mm; zone of inhibition at 400 µg/disc (Staphylococcus aureus [19]): 18 mm; MIC (Enterococcus hirae [23]): 50 µg/mL (≈ 67.8 µM); MIC (Staphylococcus aureus [24]): 50 µg/mL (≈ 67.8 µM); MIC (Staphylococcus aureus [25]): 50 µg/mL (≈ 67.8 µM); zone of inhibition at 400 µg/disc (Micrococcus luteus [26]; ATCC 9341, 18 h, read-out: DIZ): 12 mm; MIC (Staphylococcus aureus [27]): 50 µg/mL (≈ 67.8 µM); MIC (Micrococcus luteus [28]): 50 µg/mL (≈ 67.8 µM); MIC (Staphylococcus aureus [29]): 50 µg/mL (≈ 67.8 µM); zone of inhibition at 400 µg/disc (Staphylococcus aureus [30]): 18 mm; MIC (Staphylococcus aureus [31]): 50 µg/mL (≈ 67.8 µM); MIC (Bacillus cereus [32]): 50 µg/mL (≈ 67.8 µM); MIC (Staphylococcus aureus [33]): 50 µg/mL (≈ 67.8 µM); MIC (Staphylococcus aureus [34]): 50 µg/mL (≈ 67.8 µM); MIC [35]: 100 µg/mL (≈ 136 µM); MIC (Staphylococcus aureus [36]): 12.5 µg/mL (≈ 17 µM); MIC (Staphylococcus aureus [37]): 50 µg/mL (≈ 67.8 µM); zone of inhibition at 400 µg/disc (Staphylococcus aureus [38]): 18 mm; MIC (Staphylococcus aureus [39]): 50 µg/mL (≈ 67.8 µM); MIC (Staphylococcus aureus [40]): 100 µg/mL (≈ 136 µM)
Cc1cc2c(c(O)c1-c1c(C)cc3c(c1O)/C(=C/NCCC(=O)N[C@@H](Cc1c[nH]cn1)C(=O)O)C(=O)C(O)=C3C(C)C)/C(=C/NCCC(=O)N[C@@H](Cc1c[nH]cn1)C(=O)O)C(=O)C(O)=C2C(C)C | 16 | 100 (≈ 107 µM) | 25 (≈ 26.7 µM) | 50 (≈ 53.5 µM) | 50 (≈ 53.5 µM) | 13 | 100 (≈ 107 µM) | 100 (≈ 107 µM) | 100 (≈ 107 µM) | 25 (≈ 26.7 µM) | 200 (≈ 214 µM) | 14 | 100 (≈ 107 µM) | 100 (≈ 107 µM) | 50 (≈ 53.5 µM) | 15 | 14 | 50 (≈ 53.5 µM) | 100 (≈ 107 µM) | 50 (≈ 53.5 µM) | zone of inhibition at 400 µg/disc (Enterococcus hirae [8]): 12 mm; zone of inhibition at 400 µg/disc (Staphylococcus aureus [19]): 15 mm; MIC (Enterococcus hirae [23]): 50 µg/mL (≈ 53.5 µM); MIC (Staphylococcus aureus [24]): 50 µg/mL (≈ 53.5 µM); MIC (Staphylococcus aureus [25]): 100 µg/mL (≈ 107 µM); diameter of the inhibition zone (DIZ) (Micrococcus luteus [26]): inactive; MIC (Staphylococcus aureus [27]): 50 µg/mL (≈ 53.5 µM); MIC (Micrococcus luteus [28]): 50 µg/mL (≈ 53.5 µM); MIC (Staphylococcus aureus [29]): 100 µg/mL (≈ 107 µM); zone of inhibition at 400 µg/disc (Staphylococcus aureus [30]): 13 mm; MIC (Staphylococcus aureus [31]): 50 µg/mL (≈ 53.5 µM); MIC (Bacillus cereus [32]): 50 µg/mL (≈ 53.5 µM); MIC (Staphylococcus aureus [33]): 100 µg/mL (≈ 107 µM); MIC (Staphylococcus aureus [34]): 100 µg/mL (≈ 107 µM); MIC [35]: 200 µg/mL (≈ 214 µM); MIC (Staphylococcus aureus [36]): 25 µg/mL (≈ 26.7 µM); MIC (Staphylococcus aureus [37]): 100 µg/mL (≈ 107 µM); zone of inhibition at 400 µg/disc (Staphylococcus aureus [38]): 15 mm; MIC (Staphylococcus aureus [39]): 25 µg/mL (≈ 26.7 µM); MIC (Staphylococcus aureus [40]): 100 µg/mL (≈ 107 µM)
Cc1cc2c(c(O)c1-c1c(C)cc3c(c1O)/C(=C/NCC1COCCOCCOCCOCCOCCO1)C(=O)C(O)=C3C(C)C)/C(=C/NCC1COCCOCCOCCOCCOCCO1)C(=O)C(O)=C2C(C)C (centres undefined) | 14 | 100 (≈ 93.5 µM) | 100 (≈ 93.5 µM) | 100 (≈ 93.5 µM) | 100 (≈ 93.5 µM) | 11 | 100 (≈ 93.5 µM) | 100 (≈ 93.5 µM) | 100 (≈ 93.5 µM) | 100 (≈ 93.5 µM) | 200 (≈ 187 µM) | 11 | 200 (≈ 187 µM) | 100 (≈ 93.5 µM) | 100 (≈ 93.5 µM) | 11 | 12 | 100 (≈ 93.5 µM) | 100 (≈ 93.5 µM) | 100 (≈ 93.5 µM) | diameter of the inhibition zone (DIZ) (Enterococcus hirae [8]): inactive; MIC (Enterococcus hirae [23]): 100 µg/mL (≈ 93.5 µM); MIC (Staphylococcus aureus [24]): 100 µg/mL (≈ 93.5 µM); MIC (Staphylococcus aureus [25]): 200 µg/mL (≈ 187 µM); diameter of the inhibition zone (DIZ) (Micrococcus luteus [26]): inactive; MIC (Staphylococcus aureus [27]): 100 µg/mL (≈ 93.5 µM); MIC (Micrococcus luteus [28]): 100 µg/mL (≈ 93.5 µM); MIC (Staphylococcus aureus [29]): 200 µg/mL (≈ 187 µM); zone of inhibition at 400 µg/disc (Staphylococcus aureus [30]): 11 mm; MIC (Staphylococcus aureus [31]): 100 µg/mL (≈ 93.5 µM); MIC (Bacillus cereus [32]): 100 µg/mL (≈ 93.5 µM); MIC (Staphylococcus aureus [33]): 200 µg/mL (≈ 187 µM); MIC (Staphylococcus aureus [34]): 100 µg/mL (≈ 93.5 µM); MIC [35]: > 400 µg/mL; MIC (Staphylococcus aureus [36]): 100 µg/mL (≈ 93.5 µM); MIC (Staphylococcus aureus [37]): 100 µg/mL (≈ 93.5 µM); zone of inhibition at 400 µg/disc (Staphylococcus aureus [38]): 11 mm; MIC (Staphylococcus aureus [39]): 100 µg/mL (≈ 93.5 µM); MIC (Staphylococcus aureus [40]): 200 µg/mL (≈ 187 µM)
